Patent US8008487B2, “Substituted thieno[2,3-D]pyrimidines as fungicides” (priority 2004, dated 2011)

Experiments:
Assay type in all cases: in vivo
Colletotricum lagenarium = test: Cucumber Anthracnose (COLLLA), whole-plant fungicide test; details: Cucumis sativus, foliar, 24 h, 200 ppm on foliage, one-day protectant test, read-out: COLLLA percent control of disease
Leptosphaeria nodorum = test: Glume Blotch of Wheat (LEPTNO), whole-plant fungicide test; details: Parastagonospora nodorum, 24 h, one-day protectant test, read-out: LEPTNO percent control of disease; for pest or weed control at 200 ppm: foliar, 200 ppm on foliage
Phytophthora infestans = test: whole plant or invertebrate; details: Phytophthora infestans, in Solanum lycopersicum, foliar, 24 h, read-out: PHYTIN percent control of disease, 200 ppm on foliage, tomato, one-day protectant test
Erysiphe cichoracaerum = test: Cucumber Powdery Mildew (ERYSCI), whole-plant fungicide test; details: Erysiphe, foliar, 24 h, 200 ppm on foliage, one-day protectant test, read-out: ERYSCI percent control of disease
Magnaporthe grisea = test: whole plant or invertebrate; details: Pyricularia oryzae, in Oryza sativa, foliar, 24 h, read-out: PYRIOR percent control of disease, 200 ppm on foliage, rice, one-day protectant test
[1] = tested on: Puccinia recondita tritici; test: Leaf Rust of Wheat (PUCCRT), whole-plant fungicide test; details: Puccinia recondita, 24 h, one-day protectant test, read-out: PUCCRT percent control of disease; for pest or weed control at 200 ppm: foliar, 200 ppm on foliage; for pest or weed control at 100 ppm: 100 ppm (footnote a)

Row | SMILES | pest or weed control at 200 ppm (Colletotricum lagenarium) [%] | pest or weed control at 200 ppm (Leptosphaeria nodorum) [%] | pest or weed control at 200 ppm (Phytophthora infestans) [%] | pest or weed control at 200 ppm (Erysiphe cichoracaerum) [%] | pest or weed control at 200 ppm (Magnaporthe grisea) [%] | pest or weed control at 200 ppm [1] [%] | pest or weed control at 100 ppm [1] [%] | pest or weed control at 100 ppm (Leptosphaeria nodorum; 100 ppm (footnote a)) [%]
1 | COc1ccc(C(C)Nc2ncnc3scc(SC)c23)cc1 (centres unmarked) [Compound 88, 5-Methylthio-N-[1-(4-methoxyphenyl)ethyl]thieno[2,3-d]pyrimidin-4-amine] | 0 to 49 | 0 to 49 | 0 to 49 | 0 to 49 | 80 to 100 | 80 to 100 | – | –
2 | COc1ccc(C(C)Nc2ncnc3scc(I)c23)cc1 (centres unmarked) [Compound 70, (5-Iodothieno[2,3-d]pyrimidin-4-yl)-[1-(4-methoxyphenyl)ethyl]amine] | 0 to 49 | 0 to 49 | 0 to 49 | 0 to 49 | 50 to 79 | 0 to 49 | – | –
3 | CCC(Nc1ncnc2scc(Cl)c12)c1ccc(OC)nc1 (centres unmarked) [Compound 79] | 0 to 49 | 0 to 49 | 0 to 49 | 0 to 49 | 80 to 100 | 80 to 100 | – | –
4 | CC(Nc1ncnc2scc(Cl)c12)C1CC1COCC(F)(F)F (centres unmarked) [Compound 87] | 0 to 49 | 0 to 49 | 0 to 49 | 80 to 100 | 80 to 100 | 80 to 100 | – | –
5 | Clc1csc2ncnc(N3CCCCC3c3ccccc3)c12 (centres unmarked) [Compound 93] | 0 to 49 | 0 to 49 | 0 to 49 | 0 to 49 | 80 to 100 | 0 to 49 | – | –
6 | CC(Nc1ncnc2scc(Cl)c12)c1ccc(OC(F)(F)F)cc1 (centres unmarked) [Compound 82] | 0 to 49 | 0 to 49 | 0 to 49 | 80 to 100 | – | 80 to 100 | – | –
7 | COc1ncc(C(C)Nc2ncnc3scc(Cl)c23)s1 (centres unmarked) [Compound 72] | 0 to 49 | 0 to 49 | 0 to 49 | 80 to 100 | 80 to 100 | 80 to 100 | – | –
8 | CC(Nc1ncnc2scc(Br)c12)c1cnc(OCC(F)(F)F)nc1 (centres unmarked) [Compound 67] | 0 to 49 | 0 to 49 | 0 to 49 | 0 to 49 | 0 to 49 | 80 to 100 | – | –
9 | CC(Nc1ncnc2scc(Cl)c12)c1cnccn1 (centres unmarked) [Compound 23] | 0 to 49 | 0 to 49 | 0 to 49 | 80 to 100 | 50 to 79 | 80 to 100 | – | –
10 | CC(Nc1ncnc2scc(Cl)c12)c1ccc(OCC(F)(F)F)nc1 (centres unmarked) [Compound 84] | – | – | – | – | – | – | 80 to 100 | –
11 | Clc1csc2ncnc(NCCc3ccc(N4CCOCC4)cc3)c12 [Compound 8a] | – | – | – | – | – | – | 80 to 100 | 50 to 79
12 | CC(C)(C)OC(=O)c1ccc(CNc2ncnc3scc(Cl)c23)cc1 [Compound 4a] | 0 to 49 | 0 to 49 | 0 to 49 | 0 to 49 | 50 to 79 | 0 to 49 | – | –
13 | CC(Nc1ncnc2scc(Cl)c12)c1cccnc1Cl (centres unmarked) [Compound 80] | 50 to 79 | 0 to 49 | 0 to 49 | 80 to 100 | 80 to 100 | 80 to 100 | – | –
14 | CC(Nc1ncnc2scc(Cl)c12)c1ccc(OCC(F)F)nc1 (centres unmarked) [Compound 74] | 80 to 100 | 80 to 100 | 0 to 49 | 80 to 100 | 80 to 100 | 80 to 100 | – | –
15 | Clc1csc2ncnc(N3CCOCC3c3ccccc3)c12 (centres unmarked) [Compound 92] | 0 to 49 | 0 to 49 | 0 to 49 | 0 to 49 | 80 to 100 | 0 to 49 | – | –
